Measurements taken from patent US20250232831A1, “METHOD FOR PREDICTING CELL MEMBRANE PERMEABILITY OF CYCLIC PEPTIDE” (FUJIFILM Corporation, priority 2022, published 2025).
Where two headings read alike, the source gives them in different places. Where a SMILES comes first, the peptide text is derived from it. Bridges are numbered along the chain shown (N, C = ends). [ ]: non-standard residue; d: D form. The star is where a group is joined. NMeL = CN[C@@H](CC(C)C)C(=O)O; hCys = N[C@@H](CCS)C(=O)O; NMeA = CN[C@@H](C)C(=O)O; Piperidide = C1CCN(*)CC1; dNMeA = CN[C@H](C)C(=O)O

Experiment: Evaluation of cell membrane permeability (permeation test, permeability coefficient Papp)
Assay type: in vitro ADME
Details: dog
Experimental: 300 μL of MDCK II cells (ECACC standard cell line) at a density of 1.0×10^6 cells/mL were seeded in an insert (dedicated for a 24-well plate, pore diameter: 3.0 μm, manufactured by Corning Incorporated), and cultured at 37° C. in a 5% CO2 environment. After 3 days, the electric resistance value of the cell layer (measuring device: Millicell (registered trademark) ERS-2 (manufactured by Millipore Corporation), electrode: ENDOHM-6 (manufactured by WPI, Inc.)) was measured, and it was confirmed that the cell layer had high barrier properties (>100 (2 Ω·cm^2).
The insert was washed by being immersed in a Hank's Balanced Salt Solution (HBSS) (phenol red-free), 200 μL of a sample prepared at 10 μmol/L/HBSS was added thereto, and the insert was allowed to stand in a low-adsorption 24-well plate containing 900 μL of HBSS (37° C., 5% CO2). After 2 hours, each liquid of the upper layer (apical) and the lower layer (basal) of the insert (10 μL for apical and 500 μL for basal) was recovered. After testing, no leakage was confirmed with Lucifer Yellow, which is a non-permeable fluorescent dye.
The device used was LC/MS/MS (triple quadrupole type). […]
Based on the calculation expression shown in the following expression, a permeability coefficient Papp, which represents the membrane permeability, was calculated from each quantitative value. […]

In the case of `CC(C)C[C@@H]1NC(=O)[C@H](C)N(C)C(=O)[C@@H](C)N(C)C(=O)[C@H](CC(C)C)N(C)C(=O)[C@H](CC(C)C)N(C)C(=O)[C@H](CC(C)C)NC(=O)[C@H](CC(C)C)N(C)C(=O)CSCC[C@@H](C(=O)N2CCCCC2)NC(=O)[C@H](C)N(C)C(=O)[C@H](C)N(C)C1=O` [Compound 1] ({CH2CO}-[NMeL]L[NMeL][NMeL][dNMeA][NMeA]L[NMeA][NMeA][hCys]-Piperidide; thioether N-10), the Papp A→B at 2 h, 10 μmol/L (MDCK) is reported as 1.1 ×10⁻⁶ cm/s.
Work on `CC(C)C[C@@H]1NC(=O)[C@H](CC(C)C)N(C)C(=O)CSCC[C@@H](C(=O)N2CCCCC2)NC(=O)[C@H](C)N(C)C(=O)[C@@H]2CCCN2C(=O)[C@H](CC(C)C)N(C)C(=O)[C@H](C)NC(=O)[C@H](C)N(C)C(=O)[C@H](CC(C)C)N(C)C(=O)[C@H](CC(C)C)N(C)C1=O` [Compound 2] ({CH2CO}-[NMeL]L[NMeL][NMeL][NMeA]A[NMeL]P[NMeA][hCys]-Piperidide; thioether N-10) yielded a Papp A→B at 2 h, 10 μmol/L (MDCK II cells, 10 μmol/L sample in HBSS, 2 hours, 37° C., apical to basal, read-out: Cell membrane permeability Papp) of 0.04 ×10⁻⁶ cm/s.
